row,melting point,Compound
1,> 250 °C,Cc1ccc(S(=O)(=O)Nc2nc(-c3ccc([N+](=O)[O-])cc3)cs2)cc1
2,96.3 to 96.7 °C,CCc1cc(-c2[nH]c3ccccc3c2CC)cc(CC)c1O
3,320 to 322 °C,c1ccc2c(c1)ncc1nc(-c3nnn[nH]3)cn12
4,87 to 91 °C,CCCCNc1cccc(-c2ccnc3c(C(=O)c4cccs4)cnn23)c1
5,175 to 176 °C,O=C(Nc1ccc(CN2CCC(=O)C(=C3SC=CS3)C2=O)cc1)OCc1ccccc1
6,119 to 121 °C,CC(C)(c1ccccc1)c1ccc(O)c(-n2nc3ccccc3n2)c1
7,173 to 175 °C,O=C(c1ccc(Cl)cc1)c1c(N2C(=O)c3ccccc3C2=O)sc(Br)c1CBr
8,205 to 207 °C,O=C1N(Cc2ccccn2)c2c(F)cccc2C12COc1cc3c(cc12)OCCO3 (stereo not drawn)
9,51 to 53 °C,CC(C)(O)c1ccc(CNC(=O)c2cccnc2Oc2cccc(S(C)(=O)=O)c2)cc1
10,131 to 133 °C,N=c1[nH]c2ccc(Cl)cc2c2nc(-c3ccco3)nn12
11,179 to 182 °C,CCOC(=O)NC(=O)C1c2ccccc2Sc2ccccc21
12,195 to 196 °C,CS(=O)(=O)c1ccc(-c2c(-c3ccc(F)cc3)c(OCc3c(F)cccc3Cl)nn2Cc2c(F)cccc2Cl)cc1
13,132 to 134 °C,c1ccc(C(c2ccccc2)N2CCN(CCCOc3ccc4nncn4n3)CC2)cc1
14,205 to 206 °C,COc1ccc(Cc2nc3cnc4cc(-c5ccccc5)ccc4c3n2CCOc2ccccc2)cc1
15,90 to 91 °C,Cc1sc(-c2ccccc2)nc1-c1ccc(Cl)cc1
16,218 to 219 °C,O=C(O)Cc1nc(-c2ccc(Cl)cc2)oc1-c1ccoc1
17,219 to 222 °C,COc1ccccc1-c1ccc2c(c1)S(=O)(=O)NC(C1CCCCC1)N2 (stereo not drawn)

# The remaining lines, values behind:
row,Compound,melting point
1,Cc1cc(C#CC2CC2)cc(C)c1Oc1ccc(N)c(Nc2ccc(C#N)cc2)n1,82 to 85 °C
2,CCOC(=O)c1nc2c(C(=O)OCC)cccn2c1[N+](=O)[O-],139 to 140 °C
3,COC(=O)c1ccc(OCCc2c[nH]cn2)cc1,116 to 118 °C
4,COc1cc(OC)cc(C(=O)c2ccc(OC(F)F)c(OC(F)F)c2)c1,60 to 62 °C
5,CSc1nc(C#N)c(C#N)nc1SC,139 to 142 °C
6,CCc1ccc(Nc2nc3cc(NC(=O)c4ccc(Cl)cc4)ccc3o2)cc1,> 250 °C
7,COc1ccc(C(=O)C=CN(C)C)cc1OC,124 to 125 °C
8,Nc1c([N+](=O)[O-])cnc2sccc12,227 to 228 °C
9,CN1CC(=O)Nc2ccsc2C1=O,270 to 272 °C
10,CCc1nc(OC)c(NC(=O)N2CCN(c3cc(F)cc(F)c3)CC2)cc1C(=O)NC(C)C(=O)Nc1cc(CO)cc(Nc2c3ccccc3nc3ccccc23)c1 (stereo not drawn),202 to 204 °C
11,CC(CC1CCCCC1)N(C)C(=O)COCC(=O)O (stereo not drawn),90 to 91 °C
12,CC(C)(C)OC(=O)c1ncn2c1CN(C(=O)N1CCOCC1)c1cc(F)ccc1-2,196 °C
13,Oc1cc(Br)ccc1C12CC3CC(CC(C3)C1)C2,112 to 114 °C
14,Cn1c(C(F)(F)F)cc(=O)n(-c2cc(S(=O)(=O)NC(=O)OCc3ccccc3)c(Cl)cc2F)c1=O,231 to 232 °C
15,CNc1nc(-c2ccc(SC)cc2)n(-c2ccc(C)c(C)c2)c(=O)c1C#N,199 to 205 °C
16,CC1(C)CC(O)CC2(C)OC(=O)C=C12 (stereo not drawn),148 to 149 °C
17,CC(CN1CC(=O)N(CN2CCN(c3ccccc3)CC2)C(=O)C1)N1CC(=O)N(CN2CCN(c3ccccc3)CC2)C(=O)C1 (stereo not drawn),94 to 101 °C
18,CCCCCCCCCCc1ccc(NC(=O)c2cnc(C(=O)NCC(=O)OCC)c(OC)c2)cc1,155 to 157 °C
19,CS(=O)(=O)NCc1ccc2[nH]cc(C(=O)C(=O)N3CCCC3)c2c1,235 to 236 °C
20,O=c1[nH]c(=O)n(C2COC(CO)C2CO)cc1C=CBr (stereo not drawn),142 to 143 °C
21,CCN1N=C(c2ccc(OC)c(OC)c2)[C@@H]2CCCC[C@@H]2C1=O (relative stereo),105 to 106 °C

# Reference: a melting point compilation (Tetko et al.; mined from patent text by program, amines drawn as free bases though some values may be those of a salt)
